SMILES strings stand for the structures.

As usually defined, the melting point is the temperature of the solid-liquid transition.

For `N#Cc1cnc2c(sc3ccc(N)cc32)c1Nc1cccc(Br)c1` [Example 92, 8-Amino-4-(3-bromoanilino)-[1]benzothieno[3,2-b]pyridine-3-carbonitrile], the melting point was 295 to 300 °C (dec.). As to `COc1cc(Nc2c(C#N)cnc3cc4cc(OCCCl)c(OC)cc4cc23)c(C)cc1Cl` [Example 122, 4-(4-chloro-5-methoxy-2-methylanilino)-7-methoxy-8-(chloroethoxy)benzo[g]quinoline-3-carbonitrile], the melting point was 132 to 168 °C (dec.). Take `N#Cc1cnc2c(oc3ccccc32)c1Nc1ccc(Oc2ccccc2)cc1` [Example 88, 4-(4-Phenoxyphenylamino)benzo[4,5]furo[3,2-b]pyridine-3-carbonitrile]: the melting point lay within 175 to 179 °C. In the case of `N#Cc1cnc2cc3ccc(O)cc3cc2c1Nc1ccc(Cl)cc1Cl` [Example 105, 4-(2,4-Dichloroanilino)-7-hydroxybenzo[g]quinoline-3-carbonitrile], the melting point is greater than 300 °C. Regarding `CCOC(=O)CN(CCOc1cc2cc3ncc(C#N)c(Nc4cc(OC)c(Cl)cc4C)c3cc2cc1OCC)CC(=O)OCC` [Example 193, ({2-[4-(4-Chloro-5-methoxy-2-methylphenylamino)-3-cyano-7-ethoxybenzo[g]quinoline-8-yloxy]-ethyl}-ethoxycarbonylmethylamino)-acetic acid ethyl ester], the melting point was in the range of 85 to 86 °C. Turning to `COc1cc2cc3c(Nc4ccc(Sc5nccn5C)c(Cl)c4)c(C#N)cnc3cc2cc1OCCCCl` [Example 150, 4-[3-Chloro-4-(1-methyl-1H-imidazol-2-ylsulfanyl)phenylamino]-8-(3-chloropropoxy)-7-methoxybenzo[g]quinoline-3-carbonitrile], the melting point is greater than 300 °C. As for `CN(C)CCOc1ccc2cc3ncc(C#N)c(Nc4ccc(Cl)cc4Cl)c3cc2c1` [Example 107, 4-(2,4-Dichloroanilino)-7-[2-(dimethylamino)ethoxy]benzo[g]quinoline-3-carbonitrile], the melting point was in the range of 115 to 117 °C. Molecule `COc1cc2cc3ncc(C#N)c(Nc4ccc(Cl)cc4Cl)c3cc2cc1OC` [Example 14, 4-(2,4-Dichloroanilino)-7,8-dimethoxybenzo[g]quinoline-3-carbonitrile] yielded a melting point of 271 to 273 °C.

Turning to `N#Cc1cnc2cc3cc(O)ccc3cc2c1Nc1ccc(Cl)cc1Cl` [Example 106, 4-(2,4-Dichloroanilino)-8-hydroxybenzo[g]quinoline-3-carbonitrile], the melting point lay in the range of 267 to 269 °C. For `COc1cc2cc3c(Nc4ccc(Sc5nccn5C)c(Cl)c4)c(C#N)cnc3cc2cc1OCCCl` [Example 148, 8-(2-Chloroethoxy)-4-[3-chloro-4-(1-methyl-1H-imidazol-2-ylsulfanyl)phenylamino]-7-methoxybenzo[g]quinoline-3-carbonitrile], the melting point is 275 to 280 °C. The result for `COc1cc2cc3ncc(C#N)c(Nc4cc(OC)c(OC)c(OC)c4)c3cc2cc1OCCN1CCN(C)CC1` reads 115 to 120 °C (dec.); that for `COc1cc2cc3c(Nc4ccc(Sc5nccn5C)c(Cl)c4)c(C#N)cnc3cc2cc1OCCn1ccnn1` [Example 154, 4-[3-Chloro-4-(1-methyl-1H-imidazol-2-ylsulfanyl)phenylamino]-7-methoxy-8-(2-[1,2,3]triazol-1-yl-ethoxy)benzo[g]quinoline-3-carbonitrile], 201 to 207 °C; that for `COc1cc2cc3ncc(C#N)c(Nc4cc(OC)c(OC)c(OC)c4)c3cc2cc1OCCN1CCOCC1`, 135 to 138 °C (dec.). On to `COc1cc2cc3c(Nc4ccc(Cl)cc4Cl)c(C#N)cnc3nc2cc1OC` [Example 177, 4-(2,4-Dichloroanilino)-7,8-dimethoxybenzo[b][1,8]naphthyridine-3-carbonitrile], for which the melting point is 266 to 270 °C (dec.). Consider `COc1ccc(C)c(Nc2c(C#N)cnc3c2C=C2N=C(NCCN4CCOCC4)N=C2C3)c1` [Example 31, 8-(5-Methoxy-2-methylanilino)-2-{[2-(4-morpholinyl)ethyl]amino}imidazo [4,5-g]quinoline-7-carbonitrile], for which the melting point was 148 to 150 °C. `COc1cc(Nc2c(C#N)cnc3cc4cc(OCCCl)c(OC)cc4cc23)c(Cl)cc1C` [Example 182, 8-(2-Chloroethoxy)-4-(2-chloro-5-methoxy-4-methylphenylamino)-7-methoxybenzo[g]quinoline-3-carbonitrile] showed a melting point of 222 to 236 °C.

Take `COc1cc2cc3c(Nc4ccc(Sc5nccn5C)c(Cl)c4)c(C#N)cnc3nc2cc1OCCCl` [Example 174, 8-(2-Chloroethoxy)-4-{3-chloro-4-[(1-methyl-1H-imidazol-2-yl)sulfanyl]anilino}-7-methoxybenzo[b][1,8]naphthyridine-3-carbonitrile]: the melting point is > 250 °C (dec.). `N#Cc1cnc2c(sc3ccc([N+](=O)[O-])cc32)c1Nc1ccc(Cl)cc1Cl` [Example 90, 4-(2,4-Dichloroanilino)-8-nitro[1]benzothieno[3,2-b]pyridine-3-carbonitrile]: the melting point was in the range of 210 to 213 °C. The molecule `COc1cc2cc3ncc(C#N)c(Nc4ccc(OCc5ccccc5)c(Cl)c4)c3cc2cc1OCCCl` [Example 186, 4-(4-Benzyloxy-3-chlorophenylamino)-7-(2-chloroethoxy)-8-methoxybenzo[g]quinoline-3-carbonitrile] gave a melting point of 182 to 185 °C. Consider `N#Cc1cnc2c(sc3ccccc32)c1Oc1ccc(Cl)cc1F` [Example 71, 4-(4-Chloro-2-fluorophenoxy)benzo[4,5]thieno[3,2-b]pyridine-3-carbonitrile], for which the melting point lay in the range of 174 to 175 °C. `COc1ccc2cc3c(Nc4ccc(Cl)cc4Cl)c(C#N)cnc3cc2c1` [Example 104, 4-(2,4-Dichloroanilino)-8-methoxybenzo[g]quinoline-3-carbonitrile]: the melting point was greater than 260 °C. The result for `COc1cc(Nc2c(C#N)cnc3cc4ccccc4cc23)c(C)cc1Cl` [Example 5, 4-(4-Chloro-5-methoxy-2-methylanilino)benzo[g]quinoline-3-carbonitrile] reads 195 to 197 °C; that for `N#Cc1cnc2c(sc3ccc([N+](=O)[O-])cc32)c1Nc1cccc(Br)c1` [Example 91, 4-(3-Bromoanilino)-8-nitro[1]benzothieno[3,2-b]pyridine-3-carbonitrile], greater than 300 °C; that for `COc1cc2cc3ncc(C#N)c(Nc4ccc(Oc5ccccc5)c(Cl)c4)c3cc2cc1OCCN1CCOCC1` [Example 214, 4-(3-Chloro-4-phenoxyphenylamino)-8-methoxy-7-(2-morpholin-4-yl-ethoxy)benzo[g]quinoline-3-carbonitrile], 251 to 253 °C. `N#Cc1cnc2c(c1Nc1ccc(Oc3ccccc3)cc1)C=C1N=C(N)N=C1C2` [Example 34, 2-Amino-8-(4-phenoxyanilino)imidazo[4,5-g]quinoline-7-carbonitrile] showed a melting point greater than 300 °C. Molecule `CCOc1cc2cc3c(Nc4cc(OC)c(Cl)cc4C)c(C#N)cnc3cc2cc1OCCCl` [Example 179, 8-(2-Chloroethoxy)-4-(4-chloro-5-methoxy-2-methylanilino)-7-ethoxybenzo[g]quinoline-3-carbonitrile] showed a melting point of 129 to 130 °C. Molecule `COc1cc(Nc2c(C#N)cnc3c2C=C2N=C(NCCN4CCOCC4)N=C2C3)cc(OC)c1OC` [Example 33, 2-{[2-(4-Morpholinyl)ethyl]amino}-8-(3,4,5-trimethoxyanilino)imidazo[4,5-g]quinoline-7-carbonitrile] had a melting point of 175 to 178 °C. In turn, `CCOC(=O)CN(CCOc1cc2cc3c(Nc4cc(OC)c(Cl)cc4C)c(C#N)cnc3cc2cc1OCC)CC(=O)OCC` [Example 192, ({2[4-(4-Chloro-5-methoxy-2-methylphenylamino)-3-cyano-8-ethoxybenzo[g]quinoline-7-yloxy]-ethyl}-ethoxycarbonylmethyl-amino)-acetic acid ethyl ester] had a melting point of 70 to 71 °C. Take `COc1cc2cc3c(Nc4ccc(F)c(Cl)c4)c(C#N)cnc3cc2cc1OCCCl` [Example 185, 8-(2-Chloroethoxy)-4-(3-chloro-4-fluoroanilino)-7-methoxybenzo[g]quinoline-3-carbonitrile]: the melting point lay within 137 to 159 °C. In turn, `COc1cc(Nc2c(C#N)cnc3cc4cc(OCCCl)c(OC)cc4cc23)c(Cl)cc1F` [Example 180, 8-(2-Chloroethoxy)-4-(2-chloro-4-fluoro-5-methoxyanilino)-7-methoxybenzo[g]quinoline-3-carbonitrile] came in with a melting point of 193 to 204 °C. `N#Cc1cnc2c(sc3c(N)cccc32)c1Nc1cccc(Br)c1` [Example 81, 6-Amino-4-(3-bromoanilino)[1]benzothieno[3,2-b]pyridine-3-carbonitrile]: the melting point was 256 to 258 °C.

On to `COc1cc2cc3c(Nc4cc(OC)c(F)cc4Cl)c(C#N)cnc3cc2cc1O` [Example 220, 4-[(2-Chloro-4-fluoro-5-methoxyphenyl)amino]-8-hydroxy-7-methoxybenzo[g]quinoline-3-carbonitrile], for which the melting point is 239 to 242 °C (dec.).

`COc1cc(Nc2c(C#N)cnc3cc4cc(OCCCCl)c(OC)cc4cc23)c(Cl)cc1Cl` [Example 156, 8-(3-Chloropropoxy)-4-(2,4-dichloro-5-methoxyphenylamino)-7-methoxybenzo[g]quinoline-3-carbonitrile] registered a melting point of 220 to 223 °C.

`COc1cc2cc3c(Nc4ccc(Sc5nccn5C)c(Cl)c4)c(C#N)cnc3nc2cc1OCCN1CCOCC1` [Example 176, 4-{3-Chloro-4-[(1-methyl-1H-imidazol-2-yl)sulfanyl]anilino}-7-methoxy-8-[2-(4-morpholinyl)ethoxy]benzo[b][1,8]naphthyridine-3-carbonitrile]: the melting point is 160 to 162 °C (dec.).

Take `COc1cc(Nc2c(C#N)cnc3cc4cc(OC)c(OCCN5CCOCC5)cc4cc23)c(Cl)cc1C`: the melting point lay within 240 to 241 °C. The molecule `COc1cc2cc3c(Nc4ccc(Sc5nccn5C)c(Cl)c4)c(C#N)cnc3cc2cc1OCCN1CCN(C)CC1` [Example 152, 4-[3-Chloro-4-(1-methyl-1H-imidazol-2-ylsulfanyl)phenylamino]-7-methoxy-8-[2-(4-methylpiperazin-1-yl)ethoxy]-benzo[g]quinoline-3-carbonitrile] returned a melting point of 184 to 186 °C.
